Laboratory results from PubChem BioAssay (NCI).
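These data come from cells grown in 96-well plates and exposed to compound for 48 hours at five concentrations. TGI: total growth inhibition.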

What was measured:
Assay in all cases: NCI tumour cell line growth inhibition, 48 h
BT-549 breast = tested on: BT-549 breast
COLO 205 colon = tested on: COLO 205 colon
DU-145 prostate = tested on: DU-145 prostate
EKVX NSCLC = tested on: EKVX NSCLC
HCT-15 colon = tested on: HCT-15 colon
HL-60(TB) leukemia = tested on: HL-60(TB) leukemia
HOP-62 NSCLC = tested on: HOP-62 NSCLC
MALME-3M melanoma = tested on: MALME-3M melanoma
MDA-MB-231 breast = tested on: MDA-MB-231 breast
MOLT-4 leukemia = tested on: MOLT-4 leukemia
NCI-H23 lung = tested on: NCI-H23 lung
NCI-H522 lung = tested on: NCI-H522 lung
OVCAR-4 ovarian = tested on: OVCAR-4 ovarian
OVCAR-8 ovarian = tested on: OVCAR-8 ovarian
PC-3 prostate = tested on: PC-3 prostate
SF-295 CNS = tested on: SF-295 CNS
SN12C renal = tested on: SN12C renal
UACC-257 melanoma = tested on: UACC-257 melanoma
UO-31 renal = tested on: UO-31 renal

## O=S(=O)(O)c1ccc2cccc(N=Nc3c(O)ccc4ccccc34)c2c1
BT-549 breast
  TGI: > 100 µM
COLO 205 colon
  TGI: > 100 µM
DU-145 prostate
  TGI: > 100 µM
EKVX NSCLC
  TGI: > 100 µM
HCT-15 colon
  TGI: > 100 µM
HL-60(TB) leukemia
  TGI: > 100 µM
HOP-62 NSCLC
  TGI: > 100 µM
MALME-3M melanoma
  TGI: > 100 µM
MDA-MB-231 breast
  TGI: > 100 µM
MOLT-4 leukemia
  TGI: > 100 µM
NCI-H23 lung
  TGI: > 100 µM
NCI-H522 lung
  TGI: > 100 µM
OVCAR-4 ovarian
  TGI: > 100 µM
OVCAR-8 ovarian
  TGI: > 100 µM
PC-3 prostate
  TGI: > 100 µM
SF-295 CNS
  TGI: > 100 µM
SN12C renal
  TGI: > 100 µM
UACC-257 melanoma
  TGI: > 100 µM
UO-31 renal
  TGI: > 100 µM

## O=C1C=C2C(=NC34CCCCC3C(c3ccccc3)C3=C(c5ccccc5CC3)N24)c2ccccc21 (configuration not stated)
BT-549 breast
  TGI: > 10 µM
COLO 205 colon
  TGI: > 10 µM
DU-145 prostate
  TGI: > 10 µM
EKVX NSCLC
  TGI: > 10 µM
HCT-15 colon
  TGI: > 10 µM
HL-60(TB) leukemia
  TGI: > 10 µM
HOP-62 NSCLC
  TGI: > 10 µM
MALME-3M melanoma
  TGI: > 10 µM
MDA-MB-231 breast
  TGI: > 10 µM
MOLT-4 leukemia
  TGI: > 10 µM
NCI-H23 lung
  TGI: > 10 µM
NCI-H522 lung
  TGI: > 10 µM
OVCAR-4 ovarian
  TGI: > 10 µM
OVCAR-8 ovarian
  TGI: > 10 µM
PC-3 prostate
  TGI: > 10 µM
SF-295 CNS
  TGI: > 10 µM
SN12C renal
  TGI: > 10 µM
UACC-257 melanoma
  TGI: > 10 µM

## Cc1nc(N)nc(N)c1-c1ccc(Cl)c(Cl)c1
BT-549 breast
  TGI: > 100 µM
COLO 205 colon
  TGI: > 67.5 µM
DU-145 prostate
  TGI: > 100 µM
EKVX NSCLC
  TGI: > 100 µM
HCT-15 colon
  TGI: > 100 µM
HL-60(TB) leukemia
  TGI: > 88.1 µM
HOP-62 NSCLC
  TGI: > 100 µM
MALME-3M melanoma
  TGI: > 87.7 µM
MDA-MB-231 breast
  TGI: > 100 µM
MOLT-4 leukemia
  TGI: > 100 µM
NCI-H23 lung
  TGI: > 81 µM
NCI-H522 lung
  TGI: 34.8 µM
OVCAR-4 ovarian
  TGI: > 100 µM
OVCAR-8 ovarian
  TGI: > 100 µM
PC-3 prostate
  TGI: > 100 µM
SF-295 CNS
  TGI: > 100 µM
SN12C renal
  TGI: > 100 µM
UACC-257 melanoma
  TGI: > 100 µM
UO-31 renal
  TGI: > 89.3 µM

## Cc1ccc(C2=Nc3cccc4cccc(c34)N2)cc1
BT-549 breast
  TGI: > 100 µM
COLO 205 colon
  TGI: > 100 µM
DU-145 prostate
  TGI: > 100 µM
EKVX NSCLC
  TGI: > 100 µM
HCT-15 colon
  TGI: > 100 µM
HL-60(TB) leukemia
  TGI: > 100 µM
HOP-62 NSCLC
  TGI: > 100 µM
MALME-3M melanoma
  TGI: > 100 µM
MDA-MB-231 breast
  TGI: > 100 µM
MOLT-4 leukemia
  TGI: > 100 µM
NCI-H23 lung
  TGI: > 100 µM
NCI-H522 lung
  TGI: > 100 µM
OVCAR-4 ovarian
  TGI: > 100 µM
OVCAR-8 ovarian
  TGI: > 100 µM
PC-3 prostate
  TGI: > 100 µM
SF-295 CNS
  TGI: > 100 µM
SN12C renal
  TGI: > 100 µM
UACC-257 melanoma
  TGI: > 100 µM
UO-31 renal
  TGI: > 100 µM

## NC(=O)c1cc2cc(Cl)cc(Cl)c2oc1=Nc1ccc(F)cc1
BT-549 breast
  TGI: 37 µM
COLO 205 colon
  TGI: 40.6 µM
DU-145 prostate
  TGI: 41.8 µM
EKVX NSCLC
  TGI: 34.5 µM
HCT-15 colon
  TGI: 42.3 µM
HL-60(TB) leukemia
  TGI: > 100 µM
HOP-62 NSCLC
  TGI: > 100 µM
MALME-3M melanoma
  TGI: 43 µM
MDA-MB-231 breast
  TGI: 35.6 µM
MOLT-4 leukemia
  TGI: 37.1 µM
NCI-H23 lung
  TGI: 27.8 µM
NCI-H522 lung
  TGI: 38.1 µM
OVCAR-4 ovarian
  TGI: 70.6 µM
OVCAR-8 ovarian
  TGI: > 100 µM
PC-3 prostate
  TGI: 44.3 µM
SF-295 CNS
  TGI: 39.3 µM
SN12C renal
  TGI: 38 µM
UACC-257 melanoma
  TGI: 42.8 µM
UO-31 renal
  TGI: > 100 µM

## CN(CC1(CO)CCC1)c1cc(Cl)nc(N)n1
BT-549 breast
  TGI: > 100 µM
COLO 205 colon
  TGI: > 100 µM
DU-145 prostate
  TGI: > 100 µM
EKVX NSCLC
  TGI: > 100 µM
HCT-15 colon
  TGI: > 100 µM
HL-60(TB) leukemia
  TGI: > 100 µM
HOP-62 NSCLC
  TGI: > 100 µM
MALME-3M melanoma
  TGI: > 100 µM
MDA-MB-231 breast
  TGI: > 100 µM
MOLT-4 leukemia
  TGI: > 100 µM
NCI-H23 lung
  TGI: > 100 µM
NCI-H522 lung
  TGI: > 100 µM
OVCAR-4 ovarian
  TGI: > 100 µM
OVCAR-8 ovarian
  TGI: > 100 µM
PC-3 prostate
  TGI: > 100 µM
SF-295 CNS
  TGI: > 100 µM
SN12C renal
  TGI: > 100 µM
UACC-257 melanoma
  TGI: > 100 µM
UO-31 renal
  TGI: > 100 µM

## CC(NNC(=O)c1ccncc1)c1ccc(F)cc1 (configuration not stated)
BT-549 breast
  TGI: > 100 µM
COLO 205 colon
  TGI: > 100 µM
DU-145 prostate
  TGI: > 100 µM
EKVX NSCLC
  TGI: > 100 µM
HCT-15 colon
  TGI: > 100 µM
HL-60(TB) leukemia
  TGI: > 100 µM
HOP-62 NSCLC
  TGI: > 100 µM
MALME-3M melanoma
  TGI: > 100 µM
MDA-MB-231 breast
  TGI: > 100 µM
MOLT-4 leukemia
  TGI: > 100 µM
NCI-H23 lung
  TGI: > 100 µM
NCI-H522 lung
  TGI: > 100 µM
OVCAR-4 ovarian
  TGI: > 100 µM
OVCAR-8 ovarian
  TGI: > 100 µM
PC-3 prostate
  TGI: > 100 µM
SF-295 CNS
  TGI: > 100 µM
SN12C renal
  TGI: > 100 µM
UACC-257 melanoma
  TGI: > 100 µM
UO-31 renal
  TGI: > 100 µM
